Data published in US12685312B2, “Sulfonamide apyrase inhibitors” (Texas Crop Science, Inc., priority 2022, dated 2026).

These molecules were tested on apyrase (assay: Screen for apyrase inhibitors (Method 1, in vitro phosphate-release absorbance assay)). Details: inhibitor conc at 1 mM stock, 1 hr room temperature, absorbance 630 nm; rounded average of two assay results.
Type: biochemical
Outline: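 Phosphate-release colorimetric assay (Windsor method) in 60 mM Hepes, 3 mM MgCl2, 3 mM CaCl2, 3 mM ATP, pH 6.5, with compound or DMSO control added. Released phosphate developed with ammonium molybdate and ascorbic acid/TCA, then stopped with citrate/acetic acid.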

SMILES	% Inhibition of Apyrase [%]
NS(=O)(=O)c1ccc(NC(=O)c2ccc(NS(=O)(=O)c3ccc(F)c(Cl)c3)cc2)cc1 [I-961, 4-((3-chloro-4-fluorophenyl)sulfonamido)-N-(4-sulfamoylphenyl)benzamide]	14
O=C(Nc1ccc(OC(F)F)cc1)c1ccccc1S(=O)(=O)Nc1cccc(C(F)(F)F)c1 [I-224, N-(4-(difluoromethoxy)phenyl)-2-(N-(3-(trifluoromethyl)phenyl)sulfamoyl)benzamide]	67
Cc1ccc(N(C)S(=O)(=O)c2cccc(C(=O)Nc3ccc(C)cc3C)c2)cc1 [I-591, N-(2,4-dimethylphenyl)-3-(N-methyl-N-(p-tolyl)sulfamoyl)benzamide]	41
Cc1ccc(C)c(S(=O)(=O)Nc2ccc(C(=O)Nc3cccc(C(F)(F)F)c3)cc2)c1 [I-922, 4-((2,5-dimethylphenyl)sulfonamido)-N-(3-(trifluoromethyl)phenyl)benzamide]	57
O=C(Nc1ccc(OC(F)F)cc1)c1cccc(S(=O)(=O)Nc2ccc3c(c2)OCO3)c1 [I-243, 3-(N-(benzo[d][1,3]dioxol-5-yl)sulfamoyl)-N-(4-(difluoromethoxy)phenyl)benzamide]	69
O=C(Nc1ccccc1NS(=O)(=O)c1cccs1)c1cccc(Cl)c1 [I-828, 3-chloro-N-(2-(thiophene-2-sulfonamido)phenyl)benzamide]	65
Cc1ccc(NC(=O)c2sccc2C)c(S(=O)(=O)Nc2ccc(I)cc2)c1 [I-823, N-(2-(N-(4-iodophenyl)sulfamoyl)-4-methylphenyl)-3-methylthiophene-2-carboxamide]	53
COc1ccc([N+](=O)[O-])cc1NC(=O)c1cccc(S(=O)(=O)N2c3ccccc3CC2C)c1 (stereo not drawn) [I-271, N-(2-methoxy-5-nitrophenyl)-3-((2-methylindolin-1-yl)sulfonyl)benzamide]	56
O=C(Nc1cccc(S(=O)(=O)Nc2cccc(Cl)c2)c1)c1ccccn1 [I-741, N-(3-(N-(3-chlorophenyl)sulfamoyl)phenyl)picolinamide]	50
O=C(Nc1cccc(Cl)c1)c1cccc(S(=O)(=O)N2CCc3ccccc32)c1 [I-515, N-(3-chlorophenyl)-3-(indolin-1-ylsulfonyl)benzamide]	56
O=C(Nc1ccc(F)cc1)c1ccc(S(=O)(=O)Nc2cccc(C(F)(F)F)c2)cc1 [I-193, N-(4-fluorophenyl)-4-(N-(3-(trifluoromethyl)phenyl)sulfamoyl)benzamide]	74
COc1ccccc1NS(=O)(=O)c1cccc(NC(=O)c2ccc(C)s2)c1 [I-761, N-(3-(N-(2-methoxyphenyl)sulfamoyl)phenyl)-5-methylthiophene-2-carboxamide]	17
Cc1cccc(NS(=O)(=O)c2cccc(C(=O)Nc3ccc(Br)c(C)c3)c2)c1 [I-491, N-(4-bromo-3-methylphenyl)-3-(N-(m-tolyl)sulfamoyl)benzamide]	58
Cc1cccc(NS(=O)(=O)c2ccc(C(=O)Nc3cccc(C(=O)N(C)C)c3)cc2)c1C [I-894, 3-(4-(N-(2,3-dimethylphenyl)sulfamoyl)benzamido)-N,N-dimethylbenzamide]	18
O=C(Nc1cccc(S(=O)(=O)Nc2ccccc2Cl)c1)c1ccccn1 [I-745, N-(3-(N-(2-chlorophenyl)sulfamoyl)phenyl)picolinamide]	46
COc1ccc2c(c1)CCCN2C(=O)c1ccc(S(=O)(=O)N2CCCc3ccccc32)cc1 [I-866, (4-((3,4-dihydroquinolin-1(2H)-yl)sulfonyl)phenyl)(6-methoxy-3,4-dihydroquinolin-1(2H)-yl)methanone]	58
Cc1ccc(C(=O)N2CCc3ccccc32)cc1S(=O)(=O)Nc1ccc(F)cc1 [I-569, N-(4-fluorophenyl)-5-(indoline-1-carbonyl)-2-methylbenzenesulfonamide]	51
O=C(Nc1cnccc1O)c1cccc(NS(=O)(=O)c2ccc(Cl)c(Cl)c2)c1 [I-668, 3-((3,4-dichlorophenyl)sulfonamido)-N-(4-hydroxypyridin-3-yl)benzamide]	10
COc1ccc(S(=O)(=O)N2CCc3ccccc32)cc1C(=O)Nc1ccccc1C [I-436, 5-(indolin-1-ylsulfonyl)-2-methoxy-N-(o-tolyl)benzamide]	64
COc1ccc(NC(=O)c2cccc(S(=O)(=O)N3CCc4ccccc43)c2)c(OC)c1 [I-575, N-(2,4-dimethoxyphenyl)-3-(indolin-1-ylsulfonyl)benzamide]	49
COc1ccc(NC(=O)c2ccc(NS(=O)(=O)c3ccc(Cl)cc3F)cc2)cc1 [I-956, 4-((4-chloro-2-fluorophenyl)sulfonamido)-N-(4-methoxyphenyl)benzamide]	22
Cc1ccc(C(=O)Nc2ccc(S(=O)(=O)Nc3ccc(F)cc3)cc2)cc1Br [I-974, 3-bromo-N-(4-(N-(4-fluorophenyl)sulfamoyl)phenyl)-4-methylbenzamide]	63
O=C(Nc1cccc(S(=O)(=O)Nc2cccc(C(F)(F)F)c2)c1)c1ccsc1 [I-718, N-(3-(N-(3-(trifluoromethyl)phenyl)sulfamoyl)phenyl) thiophene-3-carboxamide]	58
COc1ccccc1NS(=O)(=O)c1cccc(C(=O)Nc2cccc(C(F)(F)F)c2)c1 [I-266, 3-(N-(2-methoxyphenyl)sulfamoyl)-N-(3-(trifluoromethyl)phenyl)benzamide]	58
O=C(NCC1(c2ccc(Br)cc2)CCOCC1)c1cccc(S(=O)(=O)Nc2ccc(Br)cc2)c1 [I-260, 3-(N-(4-bromophenyl)sulfamoyl)-N-((4-(4-bromophenyl)tetrahydro-2H-pyran-4-yl)methyl)benzamide]	60
O=C(c1ccc(NS(=O)(=O)c2cc(Cl)ccc2Cl)cc1)N1CCc2ccccc21 [I-964, 2,5-dichloro-N-(4-(indoline-1-carbonyl)phenyl)benzenesulfonamide]	10
COc1ccccc1C(=O)Nc1ccc(S(=O)(=O)Nc2cccc(Cl)c2)cc1 [I-995, N-(4-(N-(3-chlorophenyl)sulfamoyl)phenyl)-2-methoxybenzamide]	46
Cc1ccc(S(=O)(=O)N(C)c2ccc(C(=O)Nc3cccc(N4CCCC4=O)c3)cc2)cc1 [I-946, 4-((N,4-dimethylphenyl)sulfonamido)-N-(3-(2-oxopyrrolidin-1-yl)phenyl)benzamide]	44
COc1ccc(NS(=O)(=O)c2ccc(C(=O)Nc3cccc(C(C)=O)c3)cc2)cc1 [I-413, N-(3-acetylphenyl)-4-(N-(4-methoxyphenyl)sulfamoyl)benzamide]	16
COc1ccc(NC(=O)c2ccc(NS(=O)(=O)c3ccc4c(c3)OCCO4)cc2)cc1 [I-941, 4-((2,3-dihydrobenzo[b][1,4]dioxine)-6-sulfonamido)-N-(4-methoxyphenyl)benzamide]	50
